Read-outs that look alike come from different tables or passages of the source.
Columns and labels:
FaDu = assay: IC50 cell-based assay, adherent cells, FaDu; conditions: Homo sapiens, Pharynx, squamous cell, 72 hours, read-out: IC50 of Compounds in Adherent Cell Types
Description: (§1) In one embodiment, the IC50s of the compounds provided herein were determined in cell-based assays using adherent cells. In one embodiment, the activity of the compounds provided herein were determined in a cell-based assay using the triple negative breast cancer cell line MDA-MB-468. In one embodiment, the adherent cells used in the cell-based assays may be a cell type selected from Table 1. In one embodiment, the cell-based assay may be carried out as provided herein. On day 0, cells were seeded at 20,000 cells per well in 100 µL of media into individual wells of a 96-well tissue culture plate. The next day, compounds were diluted to twice the desired final concentration and added in 100 µL of media for a final volume of 200 μL. Standard solutions for each compound were prepared at 1000× concentration in DMSO. The highest concentration was 30 mM. Serial 1:1 dilutions were made from there for a 6- or 9-point curve (e.g., 30 mM, 15 mM, 7.5 mM, etc). Compounds were then diluted 1:500 in media, and 100 µL of the resulting solution was added to each well for a final dilution of 1:1000. Each concentration of compound was tested in triplicate. Cells were incubated at 37° C. with 5% CO2. After 72 hours, 20 μL of CellTiter 96 Aqueous One Solution Cell Proliferation Assay (Promega) was added to each well. Cells were placed back in the incubator, and the absorbance at 490 nm was read after 2-3 hours. The concentration of compound that decreased the number of metabolically active cells by 50% was determined and reported as the IC50. “Percent Viability” was determined by subtracting the average background value (media only) and expressed as a ratio to the average value obtained from cells treated with only DMSO.

Nalm-6 = assay: IC50 cell-based assay, suspension cells, Nalm-6; conditions: Homo sapiens, Leukemia, B-ALL, read-out: IC50 of Compounds in Suspension Cell Types
Description: as §1
(§2) In one embodiment, the IC50s of the compounds provided herein were determined in cell-based assays using suspension cells. In one embodiment, the activity of the compounds provided herein were determined in a cell-based assay using the JeKo-1 cell line (mantle cell lymphoma) or the Pfeiffer cell line (diffuse large B-cell lymphoma). In one embodiment, the suspension cells used in the cell-based assays may be a cell type selected from Table 2. Assays with suspension cells were similar except that 40,000-60,000 cells were added to each well and compounds were added immediately after cell plating.

MHH-CALL-4 = assay: IC50 cell-based assay, suspension cells, MHH-CALL-4; conditions: MHHCALL4, Leukemia, B-ALL (CRLF2 Hi), read-out: IC50 of Compounds in Suspension Cell Types
Description: as §1, §2

A431 = assay: IC50 cell-based assay, adherent cells, A431; conditions: Homo sapiens, A-431, Skin, epidermoid carcinoma, 72 hours, read-out: IC50 of Compounds in Adherent Cell Types
Description: as §1

SK-MEL-28 = assay: IC50 cell-based assay, adherent cells, SK-MEL-28; conditions: Homo sapiens, Melanoma, 72 hours, read-out: IC50 of Compounds in Adherent Cell Types
Description: as §1

Kg1a = assay: IC50 cell-based assay, suspension cells, Kg1a; conditions: Homo sapiens, KG-1a, Leukemia, AML, read-out: IC50 of Compounds in Suspension Cell Types
Description: as §1, §2

Panc-1 = assay: IC50 cell-based assay, adherent cells, Panc-1; conditions: Homo sapiens, Pancreas, epitheloid carcinoma, 72 hours, read-out: IC50 of Compounds in Adherent Cell Types
Description: as §1

AsPC-1 = assay: IC50 cell-based assay, adherent cells, AsPC-1; conditions: Homo sapiens, ASPC1, Pancreas, carcinoma, 72 hours, read-out: IC50 of Compounds in Adherent Cell Types
Description: as §1

Caki-1 = assay: IC50 cell-based assay, adherent cells, Caki-1; conditions: Homo sapiens, Kidney, clear cell carc., skin met, 72 hours, read-out: IC50 of Compounds in Adherent Cell Types
Description: as §1

MDA-MB-468 breast tumors = assay: Tumor growth inhibition in MDA-MB-468 mouse xenograft model for breast cancer (tumor volume); format: in vivo; conditions: SCID mice
Description: In one embodiment, the effects of a compound provided herein on tumor growth in a mouse animal model were evaluated. In specific embodiments, the mouse animal model was the MDA-MB-468 xenograft model for breast cancer. Studies were performed to evaluate the effect of a compound provided herein on the growth of MDA-MB-468 breast tumors in mice. The test system that was used is summarized below:
Exemplary Protocol: Ten mice per group were inoculated s.c. on the left flank with 5×10^6 MDA-MB-468 cells. When tumors reached a mean volume of 100 or 200 mm^3, animals began treatment with a compound provided herein (See Table 4). Test article or vehicle were given once daily by IP injection for up to 21 days. Tumors were evaluated every Monday, Wednesday and Friday, body weights and condition were evaluated on a daily basis.
Cell Culture: MDA-MB-468 breast cancer cells were grown in Liebowitz's L-15 with 10% fetal bovine serum and 1% pen/strep. Cells were routinely trypsinized and passaged 1:4. On the day of implantation, cells were washed in PBS, trypsinized and resuspended in complete media. Cells were washed 3× in serum free media (centrifuged 1000 rpm for 5 min). Cells were resuspended to a density of 1×10^8 cells/mL and diluted 1:1 with Matrigel. Cells were implanted s.c. using a 23 G needle in a volume of 0.1 mL.
Tumor Measurement: Tumors were monitored daily. If, during a daily evaluation, an animal's tumor appeared to have exceeded 1500 mm^3, the tumor was measured; and animals with tumors greater than 1500 mm^3 and/or that had become necrotic and/or hindered movement were euthanized. Tumors were measured twice weekly by measuring each tumor in 2 dimensions, along the largest dimension (length, L) and perpendicular to this dimension (width, W). Tumor weights were calculated using the standard formula: (L×W^2)/2. The mean tumor weight and standard error of the mean were calculated for each group at each time point. An ANOVA was used to compare differences of primary tumor volume.
Compound 1 was dosed in mice at a dose of, for example, qd 50 mg/kg, for 22 days or more.
Compound 2 was dosed in mice at a dose of, for example, qd 20 mg/kg from day 0 to 7, then qd 10 mg/kg from day 8 and thereafter, for 22 days or more.

[1] = tested on: triple negative breast cancer cell line MDA-MB-468; assay: IC50 cell-based assay, adherent cells, MDA-MB-468; conditions: Homo sapiens
Description: as §1
The IC50s of the compounds provided herein were determined in cell-based assay using triple negative breast cancer cell line MDA-MB-468.

MCF-7 = assay: IC50 cell-based assay, adherent cells, MCF-7; conditions: Homo sapiens, MCF7, Breast, ER+, 72 hours, read-out: IC50 of Compounds in Adherent Cell Types
Description: as §1

[2] = MDA-MB-468, Breast, triple neg, 72 hours, Table 1, read-out: IC50 of Compounds in Adherent Cell Types
[3] = MDA-MB-468 cells, Table 3, read-out: IC50 of Compounds in MDA-MB-468 Cells

| Compound | IC50 (FaDu) | IC50 (Nalm-6) | IC50 (MHH-CALL-4) | IC50 (A431) | IC50 (SK-MEL-28) | IC50 (Kg1a) | IC50 (Panc-1) | IC50 (AsPC-1) | IC50 (Caki-1) | IC50 [1, 2] | IC50 [1, 3] | IC50 (MCF-7) | also measured |
| --- | --- | --- | --- | --- | --- | --- | --- | --- | --- | --- | --- | --- | --- |
| O=C(Nc1cc(C(F)(F)F)cc(C(F)(F)F)c1)c1cc(-c2ccccc2)oc1C(F)(F)F [Compound 1, 5-Phenyl-2-trifluoromethyl-furan-3-carboxylic acid (3,5-bis-trifluoromethyl-phenyl)-amide] | < 5 µM | < 5 µM | 5 to 10 µM | < 5 µM | < 5 µM | < 5 µM | < 5 µM | < 5 µM | > 20 µM | < 5 µM | 1.5 µM | < 5 µM | Tumor Volumes in Control and Treated Animals, mean (MDA-MB-468 breast tumors; Day 1, qd 50 mg/kg IP): 112.66 mm^3; Tumor Volumes in Control and Treated Animals, mean (MDA-MB-468 breast tumors; Day 3, qd 50 mg/kg IP): 101.41 mm^3; Tumor Volumes in Control and Treated Animals, mean (MDA-MB-468 breast tumors; Day 5, qd 50 mg/kg IP): 91.44 mm^3; Tumor Volumes in Control and Treated Animals, mean (MDA-MB-468 breast tumors; Day 8, qd 50 mg/kg IP): 146.58 mm^3; Tumor Volumes in Control and Treated Animals, mean (MDA-MB-468 breast tumors; Day 10, qd 50 mg/kg IP): 175.96 mm^3; Tumor Volumes in Control and Treated Animals, mean (MDA-MB-468 breast tumors; Day 12, qd 50 mg/kg IP): 226.90 mm^3; Tumor Volumes in Control and Treated Animals, mean (MDA-MB-468 breast tumors; Day 15, qd 50 mg/kg IP): 276.23 mm^3; Tumor Volumes in Control and Treated Animals, mean (MDA-MB-468 breast tumors; Day 17, qd 50 mg/kg IP): 336.22 mm^3; Tumor Volumes in Control and Treated Animals, mean (MDA-MB-468 breast tumors; Day 19, qd 50 mg/kg IP): 366.60 mm^3; Tumor Volumes in Control and Treated Animals, mean (MDA-MB-468 breast tumors; Day 22, qd 50 mg/kg IP): 383.38 mm^3 |
| O=C(Nc1cc(C(F)(F)F)cc(C(F)(F)F)c1)c1cc(-c2ccc(Cl)cc2)oc1C(F)(F)F [Compound 2, 5-(4-Chlorophenyl)-N-(3,5-bistrifluoromethylphenyl)-2-trifluoromethylfuran-3-carboxamide] | < 5 µM | < 5 µM | < 5 µM | < 5 µM | 5 to 10 µM | < 5 µM | 5 to 10 µM | 5 to 10 µM | 5 to 10 µM | < 5 µM | 1.5 µM | 5 to 10 µM | Tumor Volumes in Control and Treated Animals, mean (MDA-MB-468 breast tumors; Day 1, qd 20 mg/kg days 0 to 7, then qd 10 mg/kg day 8 and thereafter, IP): 119.09 mm^3; Tumor Volumes in Control and Treated Animals, mean (MDA-MB-468 breast tumors; Day 3, qd 20 mg/kg days 0 to 7, then qd 10 mg/kg day 8 and thereafter, IP): 103.39 mm^3; Tumor Volumes in Control and Treated Animals, mean (MDA-MB-468 breast tumors; Day 5, qd 20 mg/kg days 0 to 7, then qd 10 mg/kg day 8 and thereafter, IP): 119.30 mm^3; Tumor Volumes in Control and Treated Animals, mean (MDA-MB-468 breast tumors; Day 8, qd 20 mg/kg days 0 to 7, then qd 10 mg/kg day 8 and thereafter, IP): 139.19 mm^3; Tumor Volumes in Control and Treated Animals, mean (MDA-MB-468 breast tumors; Day 10, qd 20 mg/kg days 0 to 7, then qd 10 mg/kg day 8 and thereafter, IP): 181.97 mm^3; Tumor Volumes in Control and Treated Animals, mean (MDA-MB-468 breast tumors; Day 12, qd 20 mg/kg days 0 to 7, then qd 10 mg/kg day 8 and thereafter, IP): 234.51 mm^3; Tumor Volumes in Control and Treated Animals, mean (MDA-MB-468 breast tumors; Day 15, qd 20 mg/kg days 0 to 7, then qd 10 mg/kg day 8 and thereafter, IP): 276.34 mm^3; Tumor Volumes in Control and Treated Animals, mean (MDA-MB-468 breast tumors; Day 17, qd 20 mg/kg days 0 to 7, then qd 10 mg/kg day 8 and thereafter, IP): 311.15 mm^3; Tumor Volumes in Control and Treated Animals, mean (MDA-MB-468 breast tumors; Day 19, qd 20 mg/kg days 0 to 7, then qd 10 mg/kg day 8 and thereafter, IP): 318.18 mm^3; Tumor Volumes in Control and Treated Animals, mean (MDA-MB-468 breast tumors; Day 22, qd 20 mg/kg days 0 to 7, then qd 10 mg/kg day 8 and thereafter, IP): 356.43 mm^3 |

— US8722731B2, “Furanyl compounds and the use thereof” (NovoMedix, LLC, priority 2010, dated 2014)
